Legend:
Assay in all cases: KINOMEscan
Type in all cases: binding
Settings in all cases: 2000 nM
SRPK3 = biological target: T1, SRPK3 (Homo sapiens, UniProt Q9UPE1)
T1 construct: purchased KINOMEscan (DiscoveRx)

MKNK2 = biological target: T2, MKNK2 (Homo sapiens, UniProt Q9HBH9)
T2 construct: DNA label (qPCR read-out); purchased KINOMEscan scanMAX panel (DiscoveRx)

BRAF = biological target: T3, BRAF (Homo sapiens, UniProt P15056)
T3 construct: DNA label (for qPCR read-out); purchased KINOMEscan scanMAX panel (DiscoveRx)

FGFR1 = biological target: T4, FGFR1 (Homo sapiens, UniProt P11362)
T4 construct: purchased DiscoveRx (KINOMEscan scanMAX panel)

QSK = biological target: T5, QSK (Homo sapiens, UniProt Q9Y2K2)
T5 construct: purchased DiscoveRx (KINOMEscan scanMAX panel)

AKT3 = biological target: T6, AKT3 (Homo sapiens, UniProt Q9Y243)
T6 construct: purchased DiscoveRx (KINOMEscan scanMAX panel, service)

NEK5 = biological target: T7, NEK5 (Homo sapiens, UniProt Q6P3R8)
T7 construct: DNA label (qPCR read-out); purchased KINOMEscan (ScanMAX panel service)

MARK1 = MARK1 (Homo sapiens, UniProt Q9P0L2)
PHKG1 = biological target: T8, PHKG1 (Homo sapiens, UniProt Q16816)
T8 construct: DNA label (for qPCR read-out); purchased DiscoveRx (KINOMEscan scanMAX service)

ABL1-phosphorylated = ABL1-phosphorylated (Homo sapiens, UniProt P00519)
NEK2 = biological target: T9, NEK2 (Homo sapiens, UniProt P51955)
T9 construct: DNA label (qPCR read-out); purchased KINOMEscan (ScanMAX panel service)

CSF1R = biological target: T10, CSF1R (Homo sapiens, UniProt P07333)
T10 construct: DNA label (for qPCR read-out); purchased DiscoveRx (KINOMEscan scanMAX service)

YES = biological target: T11, YES (Homo sapiens, UniProt P07947)
T11 construct: purchased KINOMEscan (DiscoveRx) panel service

CSNK1G2 = biological target: T12, CSNK1G2 (Homo sapiens, UniProt P78368)
T12 construct: DNA label; purchased DiscoveRx (KINOMEscan scanMAX panel)

ZAP70 = ZAP70 (Homo sapiens, UniProt P43403)
BMX = biological target: T13, BMX (Homo sapiens, UniProt P51813)
T13 construct: DNA label (for qPCR read-out); purchased KINOMEscan scanMAX panel (DiscoveRx)

AKT2 = biological target: T14, AKT2 (Homo sapiens, UniProt P31751)
T14 construct: purchased DiscoveRx (KINOMEscan scanMAX panel, service)

CAMK2A = biological target: T15, CAMK2A (Homo sapiens, UniProt Q9UQM7)
T15 construct: DNA label (qPCR read-out); purchased KINOMEscan (ScanMAX panel service)

KIT(V559D) = biological target: T16, KIT(V559D) (Homo sapiens, UniProt P10721, V559D)
T16 construct: DNA label (for qPCR read-out); purchased DiscoveRx (KINOMEscan scanMAX panel)

SgK110 = biological target: T17, SgK110 (Homo sapiens, UniProt P0C264)
T17 construct: purchased DiscoveRx (KINOMEscan scanMAX panel)

TRKC = biological target: T18, TRKC (Homo sapiens, UniProt Q16288)
T18 construct: DNA label (qPCR read-out); purchased KINOMEscan (DiscoveRx) ScanMAX panel

NEK10 = biological target: T19, NEK10 (Homo sapiens, UniProt Q6ZWH5)
T19 construct: DNA label (qPCR read-out); purchased KINOMEscan (ScanMAX panel service)

PKNB(M.tuberculosis) = biological target: T20, PKNB(M.tuberculosis) (Mycobacterium tuberculosis, UniProt P9WI81)
T20 construct: purchased DiscoveRx (KINOMEscan scanMAX panel)

TSSK3 = biological target: T21, TSSK3 (Homo sapiens, UniProt Q96PN8)
T21 construct: DNA label (for qPCR read-out); purchased DiscoveRx (KINOMEscan scanMAX panel)

ROCK1 = biological target: T22, ROCK1 (Homo sapiens, UniProt Q13464)
T22 construct: DNA label (qPCR read-out); purchased DiscoveRx (KINOMEscan ScanMAX panel)

MLK3 = biological target: T23, MLK3 (Homo sapiens, UniProt Q16584)
T23 construct: DNA label (qPCR read-out); purchased KINOMEscan scanMAX panel (DiscoveRx)

CDK9 = biological target: T24, CDK9 (Homo sapiens, UniProt P50750)
T24 construct: purchased DiscoverX (KINOMEscan service)

MEK4 = biological target: T25, MEK4 (Homo sapiens, UniProt P45985)
T25 construct: purchased DiscoveRx (KINOMEscan scanMAX panel, service)

WEE2 = biological target: T26, WEE2 (Homo sapiens, UniProt P0C1S8)
T26 construct: purchased KINOMEscan (DiscoveRx) panel service

GRK7 = biological target: T27, GRK7 (Homo sapiens, UniProt Q8WTQ7)
T27 construct: DNA label (for qPCR read-out); purchased DiscoveRx (KINOMEscan scanMAX panel, contract assay)

[1] = biological target: T28, JAK1(JH1domain-catalytic) (Homo sapiens, UniProt P23458)
T28 construct: JAK1(JH1domain-catalytic); DNA label (qPCR read-out); purchased KINOMEscan (DiscoveRx) ScanMAX panel

PIK3C2G = biological target: T29, PIK3C2G (Homo sapiens, UniProt O75747)
T29 construct: DNA label (for qPCR read-out); purchased DiscoveRx (KINOMEscan scanMAX service)

LZK = LZK (Homo sapiens, UniProt O43283)
ROCK2 = biological target: T30, ROCK2 (Homo sapiens, UniProt O75116)
T30 construct: DNA label (qPCR read-out); purchased DiscoveRx (KINOMEscan ScanMAX panel)

YSK4 = YSK4 (Homo sapiens, UniProt Q56UN5)
RIPK4 = biological target: T31, RIPK4 (Homo sapiens, UniProt P57078)
T31 construct: DNA label (qPCR read-out); purchased DiscoveRx (KINOMEscan ScanMAX panel)

T28 sequence (P23458 875-1153 limits assumed): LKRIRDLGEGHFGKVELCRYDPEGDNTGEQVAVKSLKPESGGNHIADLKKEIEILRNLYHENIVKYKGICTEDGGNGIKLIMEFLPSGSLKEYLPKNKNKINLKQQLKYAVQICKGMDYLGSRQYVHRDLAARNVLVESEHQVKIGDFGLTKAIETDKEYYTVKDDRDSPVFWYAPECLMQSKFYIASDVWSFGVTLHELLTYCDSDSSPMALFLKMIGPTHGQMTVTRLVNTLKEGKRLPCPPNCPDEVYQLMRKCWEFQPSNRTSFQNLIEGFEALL
T19 sequence (Q6ZWH5 whole entry): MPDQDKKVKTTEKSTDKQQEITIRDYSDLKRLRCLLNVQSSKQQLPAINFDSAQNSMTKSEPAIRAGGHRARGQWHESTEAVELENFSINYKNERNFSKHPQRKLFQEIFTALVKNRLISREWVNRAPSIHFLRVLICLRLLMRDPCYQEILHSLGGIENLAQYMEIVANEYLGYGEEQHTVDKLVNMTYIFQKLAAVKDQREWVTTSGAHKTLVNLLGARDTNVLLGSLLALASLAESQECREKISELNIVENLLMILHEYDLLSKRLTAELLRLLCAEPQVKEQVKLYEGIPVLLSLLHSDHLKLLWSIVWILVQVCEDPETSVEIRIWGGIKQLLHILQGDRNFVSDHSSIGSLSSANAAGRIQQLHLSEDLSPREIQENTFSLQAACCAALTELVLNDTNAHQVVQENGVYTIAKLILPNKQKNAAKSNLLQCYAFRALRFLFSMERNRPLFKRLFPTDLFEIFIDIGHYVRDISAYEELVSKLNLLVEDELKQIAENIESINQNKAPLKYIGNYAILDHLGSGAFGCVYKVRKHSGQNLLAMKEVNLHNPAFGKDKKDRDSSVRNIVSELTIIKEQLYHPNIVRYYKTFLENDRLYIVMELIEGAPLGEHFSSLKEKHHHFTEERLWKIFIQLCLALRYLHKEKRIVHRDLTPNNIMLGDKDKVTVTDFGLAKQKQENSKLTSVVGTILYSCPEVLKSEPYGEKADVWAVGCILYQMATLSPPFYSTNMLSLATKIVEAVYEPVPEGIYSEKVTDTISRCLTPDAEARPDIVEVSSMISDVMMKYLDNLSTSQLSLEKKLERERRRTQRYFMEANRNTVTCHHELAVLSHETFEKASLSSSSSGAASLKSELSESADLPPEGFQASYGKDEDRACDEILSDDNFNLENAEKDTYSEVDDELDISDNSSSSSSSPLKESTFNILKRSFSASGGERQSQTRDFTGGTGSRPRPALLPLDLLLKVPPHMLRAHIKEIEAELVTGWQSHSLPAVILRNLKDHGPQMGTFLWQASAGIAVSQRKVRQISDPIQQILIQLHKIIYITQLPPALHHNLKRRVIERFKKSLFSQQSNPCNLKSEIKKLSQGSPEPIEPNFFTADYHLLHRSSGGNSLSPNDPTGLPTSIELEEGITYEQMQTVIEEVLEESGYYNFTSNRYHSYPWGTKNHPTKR
T3 sequence (P15056 whole entry): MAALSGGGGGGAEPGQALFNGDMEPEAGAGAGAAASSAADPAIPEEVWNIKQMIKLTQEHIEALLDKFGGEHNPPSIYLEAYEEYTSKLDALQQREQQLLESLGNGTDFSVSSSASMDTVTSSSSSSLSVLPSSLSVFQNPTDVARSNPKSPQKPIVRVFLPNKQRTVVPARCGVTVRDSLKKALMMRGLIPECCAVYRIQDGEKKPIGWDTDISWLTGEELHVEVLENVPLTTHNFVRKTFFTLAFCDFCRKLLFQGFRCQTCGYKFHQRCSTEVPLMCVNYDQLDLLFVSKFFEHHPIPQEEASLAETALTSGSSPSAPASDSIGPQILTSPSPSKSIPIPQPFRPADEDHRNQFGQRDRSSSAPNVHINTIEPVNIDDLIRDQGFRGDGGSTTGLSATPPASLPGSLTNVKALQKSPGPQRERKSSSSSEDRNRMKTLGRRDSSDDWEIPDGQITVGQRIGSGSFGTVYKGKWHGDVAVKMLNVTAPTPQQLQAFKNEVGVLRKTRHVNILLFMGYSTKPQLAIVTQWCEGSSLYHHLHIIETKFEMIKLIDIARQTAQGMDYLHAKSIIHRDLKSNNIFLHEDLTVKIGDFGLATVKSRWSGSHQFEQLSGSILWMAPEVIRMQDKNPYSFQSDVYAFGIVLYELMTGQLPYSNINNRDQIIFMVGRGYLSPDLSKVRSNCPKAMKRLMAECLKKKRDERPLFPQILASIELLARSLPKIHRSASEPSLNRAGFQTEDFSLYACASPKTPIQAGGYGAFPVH
T4 sequence (P11362 22-822): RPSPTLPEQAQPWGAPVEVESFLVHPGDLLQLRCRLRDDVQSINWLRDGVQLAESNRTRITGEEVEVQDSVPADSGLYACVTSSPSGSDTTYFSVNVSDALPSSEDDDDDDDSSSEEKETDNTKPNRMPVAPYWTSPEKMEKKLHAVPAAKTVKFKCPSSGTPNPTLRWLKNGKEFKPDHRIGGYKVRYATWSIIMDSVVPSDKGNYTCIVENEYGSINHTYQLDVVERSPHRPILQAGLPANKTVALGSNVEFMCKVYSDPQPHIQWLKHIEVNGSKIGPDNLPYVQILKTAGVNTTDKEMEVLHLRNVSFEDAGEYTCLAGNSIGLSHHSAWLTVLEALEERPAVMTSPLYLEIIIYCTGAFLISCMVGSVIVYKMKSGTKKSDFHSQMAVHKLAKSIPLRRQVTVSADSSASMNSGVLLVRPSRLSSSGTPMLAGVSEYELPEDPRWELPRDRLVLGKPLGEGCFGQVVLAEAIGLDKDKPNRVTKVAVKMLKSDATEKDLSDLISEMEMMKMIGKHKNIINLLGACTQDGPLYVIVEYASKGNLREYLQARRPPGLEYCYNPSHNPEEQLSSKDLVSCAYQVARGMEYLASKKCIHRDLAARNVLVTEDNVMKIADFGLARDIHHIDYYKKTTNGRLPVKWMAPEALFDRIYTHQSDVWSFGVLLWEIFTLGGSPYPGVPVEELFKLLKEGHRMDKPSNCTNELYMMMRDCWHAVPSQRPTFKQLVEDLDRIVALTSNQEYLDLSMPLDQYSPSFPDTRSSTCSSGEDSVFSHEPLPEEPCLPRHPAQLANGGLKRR
T5 sequence (Q9Y2K2 whole entry): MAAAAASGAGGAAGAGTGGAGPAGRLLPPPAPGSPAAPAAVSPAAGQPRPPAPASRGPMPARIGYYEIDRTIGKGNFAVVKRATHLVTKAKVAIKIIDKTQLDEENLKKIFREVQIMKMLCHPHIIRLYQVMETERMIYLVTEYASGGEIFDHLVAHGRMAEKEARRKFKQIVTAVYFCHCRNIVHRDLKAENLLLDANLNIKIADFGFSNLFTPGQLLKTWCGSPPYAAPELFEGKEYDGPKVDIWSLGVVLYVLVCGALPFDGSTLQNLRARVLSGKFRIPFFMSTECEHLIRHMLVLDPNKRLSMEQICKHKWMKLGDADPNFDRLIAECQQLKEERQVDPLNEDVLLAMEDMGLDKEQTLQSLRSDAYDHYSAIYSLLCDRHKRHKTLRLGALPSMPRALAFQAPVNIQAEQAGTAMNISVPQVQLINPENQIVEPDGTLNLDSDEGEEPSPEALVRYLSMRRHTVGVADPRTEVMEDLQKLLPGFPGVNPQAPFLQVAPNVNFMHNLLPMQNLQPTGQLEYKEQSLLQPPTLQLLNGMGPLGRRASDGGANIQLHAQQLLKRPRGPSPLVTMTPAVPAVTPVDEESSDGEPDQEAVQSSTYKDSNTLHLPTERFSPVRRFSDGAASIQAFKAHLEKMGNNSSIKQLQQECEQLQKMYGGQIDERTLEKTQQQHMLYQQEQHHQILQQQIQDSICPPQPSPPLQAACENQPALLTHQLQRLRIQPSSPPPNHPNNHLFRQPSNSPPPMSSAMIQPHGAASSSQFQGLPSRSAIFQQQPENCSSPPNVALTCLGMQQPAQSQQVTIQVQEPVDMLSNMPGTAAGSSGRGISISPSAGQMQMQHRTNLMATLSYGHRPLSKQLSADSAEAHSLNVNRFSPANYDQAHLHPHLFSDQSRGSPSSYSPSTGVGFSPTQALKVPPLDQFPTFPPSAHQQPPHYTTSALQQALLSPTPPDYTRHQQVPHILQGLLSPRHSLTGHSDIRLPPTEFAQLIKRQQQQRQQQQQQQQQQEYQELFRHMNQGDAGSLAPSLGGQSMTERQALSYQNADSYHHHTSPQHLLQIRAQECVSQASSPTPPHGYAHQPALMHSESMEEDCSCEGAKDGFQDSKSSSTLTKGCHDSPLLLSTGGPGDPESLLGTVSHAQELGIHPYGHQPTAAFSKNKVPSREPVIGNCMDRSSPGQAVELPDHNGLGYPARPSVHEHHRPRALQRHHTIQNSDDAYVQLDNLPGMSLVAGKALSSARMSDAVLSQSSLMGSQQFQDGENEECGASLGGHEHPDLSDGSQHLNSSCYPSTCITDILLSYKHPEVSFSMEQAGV
T24 sequence (P50750 whole entry): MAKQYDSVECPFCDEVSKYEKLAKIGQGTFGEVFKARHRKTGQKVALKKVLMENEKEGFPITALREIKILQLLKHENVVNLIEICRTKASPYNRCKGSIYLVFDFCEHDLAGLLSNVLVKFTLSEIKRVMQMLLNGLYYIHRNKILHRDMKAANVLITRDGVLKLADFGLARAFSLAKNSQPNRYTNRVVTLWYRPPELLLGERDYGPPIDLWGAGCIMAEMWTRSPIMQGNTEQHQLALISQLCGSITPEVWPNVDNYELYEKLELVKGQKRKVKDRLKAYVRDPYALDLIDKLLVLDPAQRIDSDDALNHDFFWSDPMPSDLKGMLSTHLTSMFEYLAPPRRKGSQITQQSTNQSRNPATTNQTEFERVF
T21 sequence (Q96PN8 whole entry): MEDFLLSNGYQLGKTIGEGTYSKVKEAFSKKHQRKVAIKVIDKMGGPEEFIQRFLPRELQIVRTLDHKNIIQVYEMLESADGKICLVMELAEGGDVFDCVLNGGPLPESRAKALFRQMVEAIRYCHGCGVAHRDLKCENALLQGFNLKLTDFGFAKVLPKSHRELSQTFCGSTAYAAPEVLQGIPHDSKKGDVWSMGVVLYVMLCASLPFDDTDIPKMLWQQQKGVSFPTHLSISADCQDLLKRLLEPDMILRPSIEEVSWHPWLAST

Row | Compound | % Ctrl (SRPK3) [% Ctrl] | % Ctrl (MKNK2) [% Ctrl] | % Ctrl (BRAF) [% Ctrl] | % Ctrl (FGFR1) [% Ctrl] | % Ctrl (QSK) [% Ctrl] | % Ctrl (AKT3) [% Ctrl] | % Ctrl (NEK5) [% Ctrl] | % Ctrl (MARK1) [% Ctrl] | % Ctrl (PHKG1) [% Ctrl] | % Ctrl (ABL1-phosphorylated) [% Ctrl] | % Ctrl (NEK2) [% Ctrl] | % Ctrl (CSF1R) [% Ctrl] | % Ctrl (YES) [% Ctrl] | % Ctrl (CSNK1G2) [% Ctrl] | % Ctrl (ZAP70) [% Ctrl] | % Ctrl (BMX) [% Ctrl] | % Ctrl (AKT2) [% Ctrl] | % Ctrl (CAMK2A) [% Ctrl] | % Ctrl (KIT(V559D)) [% Ctrl] | % Ctrl (SgK110) [% Ctrl] | also measured
1 | [2H]C([2H])([2H])N(C(=O)c1ccc(N2CCCN(c3ccnc4sc(C(N)=O)c(N)c34)CC2)cc1)C([2H])([2H])[2H] [15u_D6, 3-amino-4-(4-(4-(bis(methyl-d3)carbamoyl)phenyl)-1,4-diazepan-1-yl)thieno[2,3-b]pyridine-2-carboxamide] | 96 | 69 | 96 | 92 | 97 | 100 | 100 | 100 | 97 | 77 | 95 | 95 | 100 | 69 | 87 | 100 | 99 | 100 | 91 | 100 | % Ctrl (TRKC): 85 % Ctrl; % Ctrl (NEK10): 61 % Ctrl; % Ctrl (PKNB(M.tuberculosis)): 90 % Ctrl; % Ctrl (TSSK3): 100 % Ctrl; % Ctrl (ROCK1): 67 % Ctrl; % Ctrl (MLK3): 100 % Ctrl; % Ctrl (CDK9): 100 % Ctrl; % Ctrl (MEK4): 74 % Ctrl; % Ctrl (WEE2): 88 % Ctrl; % Ctrl (GRK7): 92 % Ctrl; % Ctrl [1]: 82 % Ctrl; % Ctrl (PIK3C2G): 82 % Ctrl; % Ctrl (LZK): 87 % Ctrl; % Ctrl (ROCK2): 80 % Ctrl; % Ctrl (YSK4): 53 % Ctrl; % Ctrl (RIPK4): 68 % Ctrl
2 | CN(C)C(=O)c1ccc(N2CCCN(c3ccnc4sc(C(N)=O)c(N)c34)CC2)cc1 [15u, 3-amino-4-(4-(4-(dimethylcarbamoyl)phenyl)-1,4-diazepan-1-yl)thieno[2,3-b]pyridine-2-carboxamide] | 65 | 83 | 100 | 98 | 89 | 97 | 94 | 100 | 94 | 90 | 95 | 98 | 99 | 77 | 95 | 93 | 86 | 90 | 98 | 95 | % Ctrl (TRKC): 91 % Ctrl; % Ctrl (NEK10): 93 % Ctrl; % Ctrl (PKNB(M.tuberculosis)): 100 % Ctrl; % Ctrl (TSSK3): 93 % Ctrl; % Ctrl (ROCK1): 77 % Ctrl; % Ctrl (MLK3): 99 % Ctrl; % Ctrl (CDK9): 66 % Ctrl; % Ctrl (MEK4): 69 % Ctrl; % Ctrl (WEE2): 97 % Ctrl; % Ctrl (GRK7): 100 % Ctrl; % Ctrl [1]: 57 % Ctrl; % Ctrl (PIK3C2G): 94 % Ctrl; % Ctrl (LZK): 100 % Ctrl; % Ctrl (ROCK2): 100 % Ctrl; % Ctrl (YSK4): 74 % Ctrl; % Ctrl (RIPK4): 89 % Ctrl

— patent publication US11572369B2, “Bicyclic pyridine compositions and methods of using the same for cancer therapy” (UNIVERSITY OF SOUTH CAROLINA, priority 2019, dated 2023)
